Measured values taken from US9315522B2, “Antibacterial compounds” (JANSSEN SCIENCES IRELAND UC, priority 2012, dated 2016).
Values after ≈ are worked out from the molar mass of the structure shown. Values joined by “and” are separate entries in the source; they are usually repeats but may differ in a detail not shown here. Identical values can stand only once.

What was measured:
[1] = tested on: Staphylococcus aureus ATCC 29213; assay: Antibacterial susceptibility testing, IC90 determination (STA); assay type: cell-based; conditions: resazurin; for IC90: Staphylococcus aureus, ATCC29213, Staphylococcus aureus ATCC 29213, broth microdilution, read-out: STA (361.159) IC90
Description: (§1) The following bacteria were used: Staphylococcus aureus ATCC 29213, methicillin-resistant Staphylococcus aureus (MRSA) ATCC 700788 and Escherichia coli ATCC 35218. The bacteria used in this study were grown overnight in flasks containing 100 ml Mueller-Hinton broth (Difco cat. nr. 0757-17) in sterile de-ionized water, with shaking, at 37° C. Stocks were store at −70° C. until use.
(§2) Bacteria were incubated on a tryptic soy agar plate containing 5% sheep blood (Becton Dickinson cat. nr. 254053) for 18-24 hours at 35° C. in aerobic conditions (first passage). For the second passage, fresh Mueller-Hinton broth is inoculated with 5-10 colonies and grown overnight at 35° C. until turbidity (reaching log-phase) in aerobic conditions is reached. The bacterial suspension is then adjusted to 0.5 McFarland density and further diluted 1:100 in Mueller Hinton broth medium. This is used as inoculum.
The result(s) are depicted the table below (for STA ATCC 29213).
(§3) MIC assays were performed by the broth microdilution method in a 96-well format (flat-bottom microtitre plates) with a final volume of 0.1 ml Mueller Hinton broth containing two-fold serial dilutions of compounds and inoculated with 5×10^5 CFU/ml of bacteria (standard inoculum size according to CLSI guidelines). Inhibitors are typically varied over the range of 63 to 0.49 μM. The final DMSO concentration in the assay was 1.25% (maximum tolerable DMSO concentration=6%). In the assays where the effect of human serum on the activity of the compounds against S. aureus was tested, human serum was added at a final concentration of 10%. The plates were incubated at 35° C. for 16-20 hours. At the end of incubation the bacterial growth was quantified fluorometrically. For this, resazurin was added to all wells and the plates were re-incubated. The incubation time is dependent on the type of bacteria. A change in color from blue to pink indicated the growth of bacteria. The fluorescence was read in computer-controlled fluorometer (Fluoroskan Ascent FL, Labsystems) at an excitation wavelength 540 nm and an emission wavelength of 590 nm. The % growth inhibition achieved by the compounds was calculated according to standard methods. The IC90 (expressed in μg/ml) was defined as the 90% inhibitory concentration for bacterial growth. A panel of reference compounds were simultaneously tested for QC approval.

S. aureus = assay: Antibacterial susceptibility testing, IC90 determination with 10% human serum (STA + 10% HS); assay type: cell-based, Staphylococcus aureus; conditions: Staphylococcus aureus, human serum at final concentration of 10%, read-out: STA + 10% HS (361.169) IC90
Description: as §1, §2, §3
The results are depicted in the table(s) below (STA+10% HS).

[2] = Cytotoxicity MTT assay (HELAM); assay type: cell-based, Human; conditions: human, HelaM cells, read-out: HELAM (222.125) CC50
Description: Cytotoxicity of the compounds was evaluated using the MTT assay. Human HelaM cells grown in 96-well plates were exposed to serial dilutions of the tested compounds (final volume of 0.2 ml) and incubated for 72 hours at 37° C. and 5% CO2. Inhibitors are typically varied over the range of 25 to 0.8 μM. The final DMSO concentration in the assay is 0.5%. MTT (3-(4,5-Dimethylthiazol-2-yl)-2,5-diphenyltetrazolium bromide, a tetrazole) was added and reduced to purple formazan only in living cells. Solubilization of the formazan crystals was achieved by adding 100 μl 2-propanol. Cell viability was determined by measuring the absorbance of the reduced formazan, giving a purple color, at 540 nm and 690 nm. The absorbance measured at 690 nm was automatically subtracted from the absorbance at 540 nm, to eliminate the effects of non-specific absorption. The percent cytotoxicity achieved by the compounds was calculated according to standard methods. Cytotoxicity is reported as CC50, the concentration that causes a 50% reduction in cell viability.
The results are depicted in the table(s) below (HELAM).

[3] = molecular target: T1, S. aureus ATCC 29213 FabI (Staphylococcus aureus, UniProt Q6GI75); assay: Staphylococcus aureus FabI enzyme inhibition assay; assay type: biochemical; conditions: read-out: FabI (300.235) IC50 (converted)
T1 sequence (Q6GI75 1-256): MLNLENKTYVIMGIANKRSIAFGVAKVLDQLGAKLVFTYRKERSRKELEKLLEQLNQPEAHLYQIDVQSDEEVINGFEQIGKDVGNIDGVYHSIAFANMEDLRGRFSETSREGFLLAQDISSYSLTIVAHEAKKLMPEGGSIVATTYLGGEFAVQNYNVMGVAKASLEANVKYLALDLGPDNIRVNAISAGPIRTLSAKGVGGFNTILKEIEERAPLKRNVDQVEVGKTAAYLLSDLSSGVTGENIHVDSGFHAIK
Description: Y.1 FabI Enzyme Inhibition: Staphylococcus aureus FabI Enzyme Inhibition Assay
FabI enzyme inhibition assays were carried out in half-area, 384-well microtitre plates. Compounds were evaluated in 40-μl assay mixtures containing 100 mM NaADA, pH 6.5 (ADA=N-[2-acetamido]-2iminodiacetic acid), 250 μM crotonoyl-CoA, 625 μM NADH and 50 μg/ml S. aureus ATCC 29213 FabI. Inhibitors were typically varied over the range of 50 to 0.39 μM. The reaction mixtures were incubated for 30 minutes at room temperature and the reaction was stopped by adding 200 mM Tris buffer (pH 9.0) to create a pH-shift. The consumption of NADH was monitored by measuring the change in absorbance at […]. By comparing sample readings to those of negative (absence of compound) and positive (absence of enzyme) controls, the percent inhibition of enzymatic activity of the compounds was determined A best-fit curve is fitted by a minimum of squares method. From this an IC50-value (expressed in μg/ml), resulting in 50% inhibition of enzymatic activity, was obtained.

| SMILES | IC90 [1] [µg/mL] | IC90 (S. aureus) [µg/mL] | CC50 at 72 h [2] [µg/mL] | IC50 [3] [µM] | melting point | STA (361.159) IC90 ([1]; Staphylococcus aureus ATCC 29213, broth microdilution) [µg/mL] |
| --- | --- | --- | --- | --- | --- | --- |
| O=C1CNCc2cc(/C=C/C(=O)N3C[C@H]4CC(c5ccccc5)=C[C@H]4C3)cnc2N1 (single isomer, unassigned) [compound 46] | 0.23 (≈ 0.574 µM) | 0.27 | > 4.05 | 0.924 | – | – |
| O=C1COCc2cc(/C=C/C(=O)N3C[C@H]4CC(c5ccccc5)=C[C@H]4C3)cnc2N1 (single isomer, unassigned) [compound 53] | 0.37 (≈ 0.922 µM) | 0.7 | > 10.1 | 1.47 | 272.58 °C | – |
| O=C1Nc2ncc(/C=C/C(=O)N3CC4C=C(c5ccccc5)CC4C3)cc2Cn2cncc21 (centres unmarked) [Compound K11] | – | – | – | – | 220 to 270 °C | – |
| COc1cncc(C(=O)Nc2ccc(/C=C/C(=O)N3CC4C=C(c5ccccc5)CC4C3)cn2)c1 (centres unmarked) [Cpd. No. 7] | < 0.22 | 0.42 | > 11.7 | 2.4 | – | – |
| O=C(Nc1ccc(/C=C/C(=O)N2CC3C=C(c4ccsc4)CC3C2)cn1)c1cccnc1 (centres unmarked) [compound 4] | < 0.21 | 0.28 | 0.97 (≈ 2.19 µM) | – | 236.37 °C and 236 °C | – |
| Cc1cncc(C(=O)Nc2ccc(/C=C/C(=O)N3CC4C=C(c5nccs5)CC4C3)cn2)c1 (centres unmarked) [compound 6] | < 0.22 | < 0.22 | > 11.5 | – | 230.99 °C and 231 °C | – |
| Cc1cc(N)ncc1/C=C/C(=O)N1CC2C=C(c3ccccc3)CC2C1 (centres unmarked) [compound 20] | > 21.8 | > 21.8 | 4.55 (≈ 13.2 µM) | 8.31 | – | – |
| Cc1nc(N)ccc1/C=C/C(=O)N1CC2C=C(c3ccccc3)CC2C1 (centres unmarked) [compound 21] | > 21.8 | > 21.8 | 3.11 (≈ 9 µM) | 6.77 | – | – |
| N#Cc1cc(N)ncc1/C=C/C(=O)N1CC2C=C(c3ccccc3)CC2C1 (centres unmarked) [compound 22] | > 22.5 | > 22.5 | > 8.95 | ~33.9 | – | – |
| COc1nc(NC(C)=O)ccc1/C=C/C(=O)N1CC2C=C(c3ccccc3)CC2C1 (centres unmarked) [compound 23] | > 25.5 | > 25.5 | > 10.1 | 15.5 | – | – |
| O=C(Nc1ccc(/C=C/C(=O)N2CC3C=C(c4ccccc4)CC3C2)cn1)c1ccccn1 (centres unmarked) [compound 24] | > 27.5 | > 27.5 | 7.76 (≈ 17.8 µM) | 3.46 | – | – |
| Cc1nc(NC(=O)c2cccnc2)ccc1/C=C/C(=O)N1CC2C=C(c3ccccc3)CC2C1 (centres unmarked) [compound 25] | > 28.4 | > 28.4 | > 11.3 | 14.4 | – | – |
| Cc1cc(NC(=O)c2cccnc2)ncc1/C=C/C(=O)N1CC2C=C(c3ccccc3)CC2C1 (centres unmarked) [compound 26] | > 28.4 | > 28.4 | > 11.3 | 10.2 | – | – |
| N#Cc1cc(NC(=O)c2cccnc2)ncc1/C=C/C(=O)N1CC2C=C(c3ccccc3)CC2C1 (centres unmarked) [compound 27] | > 29.1 | > 29.1 | > 11.6 | 20.9 | – | – |
| COc1ccc(C(=O)Nc2ccc(/C=C/C(=O)N3CC4C=C(c5ccccc5)CC4C3)cn2)c(OC)n1 (centres unmarked) [compound 28] | > 31.3 | > 31.3 | 2.99 (≈ 6.02 µM) | 14.8 | – | – |
| O=C(Nc1ccc(/C=C/C(=O)N2CC3C=C(c4ccccc4)CC3C2)cn1)c1cc(F)c(Cl)nc1Cl (centres unmarked) [compound 29] | > 33 | > 33 | 2.34 (≈ 4.47 µM) | 9.32 | – | – |
| O=C(Nc1ncc(/C=C/C(=O)N2CC3C=C(c4ccccc4)CC3C2)cc1CN1CCOCC1)c1cccnc1 (centres unmarked) [compound 34] | > 33.8 | > 33.8 | 12.6 (≈ 23.4 µM) | 2.95 | – | – |
| O=C1CNCc2cc(/C=C/C(=O)N3CC4C=C(c5ccsc5)CC4C3)cnc2N1 (centres unmarked) [compound 40] | < 0.19 | < 0.19 | > 10.2 | 0.959 | – | – |
| CC1(C)Oc2cc(/C=C/C(=O)N3CC4C=C(c5ccccc5)CC4C3)cnc2NC1=O (centres unmarked) [compound 42] | < 0.2 | < 0.2 | – | – | – | – |
| CC1(C)Oc2cc(/C=C/C(=O)N3CC4C=C(c5ccccc5)CC4C3)cnc2NC1=O (centres unmarked) [compound 43] | – | – | – | – | – | <0.20 |
| CC1(C)Oc2cc(/C=C/C(=O)N3CC4C=C(c5nccs5)CC4C3)cnc2NC1=O (centres unmarked) [compound 44] | < 0.2 | < 0.2 | – | – | – | – |
| Cn1nccc1C1=CC2CN(C(=O)/C=C/c3cnc4c(c3)OC(C)(C)C(=O)N4)CC2C1 (centres unmarked) [compound 45] | < 0.2 | < 0.2 | – | – | – | – |
| C=CCN1C[C@@H]2CN(C(=O)/C=C/c3cnc4c(c3)CN(C)CC(=O)N4)C[C@@H]2C1 [compound 61] | > 24.1 | > 24.1 | > 9.58 | > 50.1 | – | – |
| CN1CC(=O)Nc2ncc(/C=C/C(=O)N3C[C@@H]4CN(c5cccnc5)C[C@@H]4C3)cc2C1 [compound 62] | > 26.4 | > 26.4 | > 10.5 | 7.41 | – | – |
| O=C1Nc2ncc(/C=C/C(=O)N3CC4C=C(c5ccccc5)CC4C3)cc2Cn2cncc21 (centres unmarked) [compound 71] | < 0.21 | < 0.21 | 6.78 (≈ 15.5 µM) | 1.1 | – | – |
| O=C1Nc2ncc(/C=C/C(=O)N3CC4C=C(c5ccccc5)CC4C3)cc2C(=O)N2CCNCC12 (centres unmarked) [compound 81] | 0.45 (≈ 0.958 µM) | 0.43 | – | – | 230 to 232 °C | – |
| CC(=O)N1CCN2Cc3cc(/C=C/C(=O)N4CC5C=C(c6ccncc6)CC5C4)cnc3NC(=O)C2C1 (centres unmarked) [compound 84] | 0.92 (≈ 1.85 µM) | 0.87 | > 12.5 | 1.34 | – | – |
| O=C1Nc2ncc(/C=C/C(=O)N3CC4C=C(c5ccccc5)CC4C3)cc2Cn2nccc21 (centres unmarked) [compound 86] | 3.47 (≈ 7.93 µM) | 3.81 | – | 1.83 | – | – |
| O=C1Nc2ncc(/C=C/C(=O)N3C[C@@H]4CN(c5ccccc5)C[C@@H]4C3)cc2CN2CCOCC12 (some centres unmarked) [compound 87] | – | – | – | – | > 250 °C | – |
| CCOC(=O)N1CCN2Cc3cc(/C=C/C(=O)N4CC5C=C(c6ccccc6)CC5C4)cnc3NC(=O)C2C1 (centres unmarked) [compound 88] | – | – | – | – | 242 to 267 °C | – |
